Data from patent publication US20230190852A1, “COMPOSITIONS AND METHODS FOR JOINT HEALTH” (Unigen, Inc., priority 2013, published 2023).
“And” between values parts separate entries of the source, which are not always exact repeats. Equal values may be shown once. Marks after values point to notes of the source that are not given here.

Columns and labels:
Format in all cases: in vivo
[1] = test system: CD-1 mice; experiment: Nociceptive behavior model elicited by intraplantar injection of formalin; details: 200 mg/kg oral
Protocol: Mice (n=6 per group) were habituated under inverted Plexiglas observation chamber for 30 minutes to allow them to acclimatize to their surroundings. […] Mice were immediately transferred to their individual observational chamber. […] Mirrors positioned behind the chambers enabled observation of the right hind paw when it was obscured from direct view. […] These behavioral reactions observed for the first five minutes are due to direct action of the irritant on sensory nerve endings where is believed to be as a result of inflammation in the later phase. […] Mice were treated with curcumin (50, 100, 150 or 200 mg/kg) or ibuprofen (200 mg/kg) orally half an hour before intraplantar formalin injection.

[2] = test system: CD-1 mice; experiment: Visceral pain perception model (Writhing's test, acetic acid)
Protocol: Mice (n=6 per group) were habituated under an inverted Plexiglas observation chamber for 30 minutes to allow them to acclimatize to their surroundings. Animals were orally administered treatment articles at different doses, […], or vehicle control (propylene glycol) 30 minutes before intraperitoneal administration of freshly made acetic acid solution (0.7% in 0.9% NaCl) at 10 ml/kg using a 26 gauge needle. The experiment was carried out at room temperature. After the challenge, each animal was placed back into its own individual section of the observation chamber and the number of constrictions of the abdominal muscle together with stretching was counted cumulatively over a period of 30 minutes (Collier et al., Br. J. Pharmacol. Chemother. 32:295, 1968).

[3] = test system: Lewis rats; experiment: Carrageenan-induced rat paw edema model (paw edema and pain sensitivity); details: for Pain sensitivity (Analgesia), percent change vs. vehicle, 1 hr / Paw Edema (Inflammation), percent change vs. vehicle, 1 hr: 1 hr after treatment; for Pain sensitivity (Analgesia), percent change vs. vehicle, 5 hr / Paw Edema (Inflammation), percent change vs. vehicle, 5 hr: 5 hr after treatment; for Pain sensitivity, percent change of vehicle / Paw edema, percent change of vehicle: 200 mg/kg oral 1 hr after carrageenan, female Lewis rats, 200 mg/kg
Protocol: Local inflammation was induced by intraplantar injection of carrageenan λ (Sigma, St. Louis, Mo.; 100 μl of 1% [w/v] in saline) into the plantar surface of right hind paw of sedated rat (with 2.5% isoflurane) at time 0 (T=0) (Gamache et al., J Neurosurg. 65:679, 1986; Guay et al., J. Biol. Chem. 279:24866, 2004; Chou et al., Anesth. Analg. 97:1724, 2003). Rats were acclimated in a procedure room for 20-30 minutes before each measurement was taken. Allodynia was evaluated by measuring responsiveness to the tip of a Randell-Selitto paw pressure test applied perpendicular to the central plantar surface of the right hind paw. A positive response to the applied pressure, noted by sharp withdrawal of the paw, was recorded automatically by an electronic Von Frey Anesthesiometer (2390 series Electrovonfrey, IITC, Woodland Hills, Calif.) (Vivancos et al., Braz. J. Med. Biol. Res. 37:391, 2004). Mechanical allodynia was evaluated before carrageenan inoculation, and thereafter at 1 hr, 2 hr, 4 hr and 6 hr. Paw edema volume was measured with the use of Plethysmometer (IITC, Woodland Hills, Calif.; Model 520) at time 0 (before carrageenan), and then 1 hr, 2 hr, 4 hr, and 6 hr after carrageenan injection. Animals (N=5 per group) were orally gavaged with a positive control ibuprofen (Spectrum Chemical MFG, Gardena, Calif.) (100 or 200 mg/kg); test articles such as: extracts, and combinations of extracts at various doses from 100, 200, 300 to 400 mg/kg and vehicle control (propylene glycol) were given 1 hour after carrageenan inoculation unless specified otherwise.

[4] = 200 mg/kg oral, vs vehicle, CD-1 mice
[5] = 200 mg/kg oral, listed as ibuprofen
[6] = 200 mg/kg oral, 3 hr after treatment

How did the “Pain Sensitivity 20-40 Minutes after Formalin Injection % ↓ vs. Vehicle” value [1] turn out when `CC(C)Cc1ccc(C(C)C(=O)O)cc1` (stereo not shown) [Ibuprofen] was run?
The value was 63.5%.

What about the “Max % inhibition of visceral pain sensitivity” value ([2]; 100 mg/kg oral) of the same compound?
The value was 67.6%.

What about the “Visceral Pain Sensitivity % ↓ vs. Vehicle” value ([2]; 100 mg/kg oral) of the same compound?
Its value is 56.1%.

What about the “% reduction of pain behavior” value ([2]; 200 mg/kg oral) of the same compound?
The value was 67.4% and 46.0%.

What about the “number of abdominal constrictions / behavioral responses in 30 minutes, Mean ± SD” value ([2]; 200 mg/kg oral) of the same compound?
Its value is 25.3±14.3 and 41.8±12.6.

And the “Visceral pain sensitivity, behavioral responses, Mean ± SD” value ([2]; 200 mg/kg oral 30 min before acetic acid i.p., observed 30 minutes, CD-1 mice)?
Its value is 34.5 ± 12.7 and 25.3 ± 14.3 and 41.8 ± 12.6.

What about the “Visceral pain sensitivity, % Inhibition” value [2, 4] of the same compound?
Its value is 67.4% and 46.0%.

And the “Visceral pain sensitivity, % inhibition vs vehicle” value [2, 4]?
The value was 64.1%.

What about the “Pain sensitivity (Analgesia), percent change vs. vehicle, 1 hr” value ([3]; 200 mg/kg oral) of the same compound?
The value was 55.6* % and 55.1* % and 52.9* %.

And the “Paw Edema (Inflammation), percent change vs. vehicle, 1 hr” value ([3]; 200 mg/kg oral)?
The value was 43.5* % and 39.5* % and 44.6* %.

What about the “Pain sensitivity (Analgesia), percent change vs. vehicle, 1 hr” value [3, 5] of the same compound?
The value was 55.1%.

And the “Paw Edema (Inflammation), percent change vs. vehicle, 1 hr” value [3, 5]?
The value was 39.5%.

What about the “Pain sensitivity (Analgesia), percent change vs. vehicle, 3 hr” value [3, 6] of the same compound?
The value was 62.7* % and 70.3* % and 62.5* %.

And the “Paw Edema (Inflammation), percent change vs. vehicle, 3 hr” value [3, 6]?
Its value is 58.0* % and 50.4* % and 54.9* %.

And the “Paw Edema (Inflammation), percent change vs. vehicle, 3 hr” value ([3]; 200 mg/kg oral, 3 hr after treatment, listed as ibuprofen)?
The value was 50.4%.

What about the “Pain sensitivity (Analgesia), percent change vs. vehicle, 5 hr” value ([3]; 200 mg/kg oral) of the same compound?
Its value is 44.6* % and 50.8* % and 48.8* %.

What about the “Paw Edema (Inflammation), percent change vs. vehicle, 5 hr” value ([3]; 200 mg/kg oral) of the same compound?
Its value is 50.3* % and 46.6* % and 50.0* %.

What about the “Pain sensitivity (Analgesia), percent change vs. vehicle, 5 hr” value [3, 5] of the same compound?
The value was 50.8%.

And the “Paw Edema (Inflammation), percent change vs. vehicle, 5 hr” value [3, 5]?
The value was 46.6%.

What about the “Pain sensitivity, percent change of vehicle” value ([3]; 1 hr) of the same compound?
Its value is 57.1* % and 55.4* % and 56.4* % and 56.1* % and 53.7* % and 52.4* % and 58.6* %.

What about the “Paw edema, percent change of vehicle” value ([3]; 1 hr) of the same compound?
The value was 53.2* % and 51.6* % and 53.9* % and 57.2* % and 54.2* % and 53.0* % and 52.5* %.

What about the “Pain sensitivity, percent change of vehicle” value ([3]; 3 hr) of the same compound?
The value was 61.5* % and 65.9* % and 62.2* % and 59.7* % and 64.0* %.

What about the “Paw edema, percent change of vehicle” value ([3]; 3 hr) of the same compound?
The value was 64.3* % and 61.9* % and 59.0* % and 67.6* % and 57.7* % and 60.1* % and 62.9* %.

What about the “Pain sensitivity, percent change of vehicle” value ([3]; 5 hr) of the same compound?
The value was 44.3* % and 49.3* % and 45.0* % and 47.9* % and 47.5* % and 43.3* % and 50.7* %.

And the “Paw edema, percent change of vehicle” value ([3]; 5 hr)?
Its value is 50.6* % and 50.0* % and 52.6* % and 53.5* % and 48.6* % and 51.3* % and 51.6* %.
